pKi: −log10 of the molar value. Converted amounts (≈) assume the structure as drawn.
Experiments:
[1] = biological target: GABA A receptor alpha-5/beta-3/gamma-2 (Rattus norvegicus) (UniProt P18508+P19969+P63079); assay: Inverse agonist activity at rat GABA alpha-5-beta-3-gamma-2 receptor expressed in HEK293 cells by electrophysiology assay relative to GABA; format: functional, cell-based
[2] = system: HEK293; assay: Selectivity ratio of Ki for cloned human GABA alpha-3-beta-3-gamma-2 receptor expressed in HEK293 cells to Ki for cloned human GABA alpha-5-beta-3-gamma-2 receptor expressed in HEK293 cells; format: cell-based
[3] = biological target: T1, GABA-A receptor; alpha-5/beta-3/gamma-2 (Homo sapiens, UniProt P18507+P28472+P31644); assay: Displacement of [3H]Flumazenil from cloned human GABA alpha-5-beta-3-gamma-2 receptor expressed in HEK293 cells; format: cell-based
T1 sequence (P18507 whole entry): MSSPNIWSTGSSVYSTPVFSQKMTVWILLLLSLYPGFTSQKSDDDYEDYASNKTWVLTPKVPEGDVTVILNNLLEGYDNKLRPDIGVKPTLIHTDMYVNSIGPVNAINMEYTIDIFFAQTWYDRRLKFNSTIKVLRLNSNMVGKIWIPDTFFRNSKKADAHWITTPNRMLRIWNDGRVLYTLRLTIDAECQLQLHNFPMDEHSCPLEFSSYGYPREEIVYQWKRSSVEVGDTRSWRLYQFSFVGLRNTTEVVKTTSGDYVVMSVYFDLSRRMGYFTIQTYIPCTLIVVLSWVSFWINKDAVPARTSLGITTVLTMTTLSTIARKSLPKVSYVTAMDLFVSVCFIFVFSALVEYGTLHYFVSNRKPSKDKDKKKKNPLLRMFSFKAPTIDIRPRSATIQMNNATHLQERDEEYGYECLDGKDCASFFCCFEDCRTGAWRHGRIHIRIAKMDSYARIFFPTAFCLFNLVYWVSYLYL
T1 sequence (P28472 whole entry): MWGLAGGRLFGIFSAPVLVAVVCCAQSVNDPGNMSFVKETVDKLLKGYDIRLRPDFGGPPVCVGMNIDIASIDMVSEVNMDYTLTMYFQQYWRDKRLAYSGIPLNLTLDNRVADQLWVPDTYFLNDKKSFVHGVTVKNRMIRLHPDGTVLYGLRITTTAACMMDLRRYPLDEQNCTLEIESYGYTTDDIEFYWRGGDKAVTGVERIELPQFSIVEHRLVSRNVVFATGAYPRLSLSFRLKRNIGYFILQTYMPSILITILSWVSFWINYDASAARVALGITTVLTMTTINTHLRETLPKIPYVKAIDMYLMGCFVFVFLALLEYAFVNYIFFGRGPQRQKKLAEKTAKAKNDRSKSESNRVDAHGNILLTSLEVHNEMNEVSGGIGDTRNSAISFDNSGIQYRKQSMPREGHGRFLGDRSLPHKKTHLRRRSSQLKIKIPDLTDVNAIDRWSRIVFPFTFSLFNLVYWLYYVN
T1 sequence (P31644 whole entry): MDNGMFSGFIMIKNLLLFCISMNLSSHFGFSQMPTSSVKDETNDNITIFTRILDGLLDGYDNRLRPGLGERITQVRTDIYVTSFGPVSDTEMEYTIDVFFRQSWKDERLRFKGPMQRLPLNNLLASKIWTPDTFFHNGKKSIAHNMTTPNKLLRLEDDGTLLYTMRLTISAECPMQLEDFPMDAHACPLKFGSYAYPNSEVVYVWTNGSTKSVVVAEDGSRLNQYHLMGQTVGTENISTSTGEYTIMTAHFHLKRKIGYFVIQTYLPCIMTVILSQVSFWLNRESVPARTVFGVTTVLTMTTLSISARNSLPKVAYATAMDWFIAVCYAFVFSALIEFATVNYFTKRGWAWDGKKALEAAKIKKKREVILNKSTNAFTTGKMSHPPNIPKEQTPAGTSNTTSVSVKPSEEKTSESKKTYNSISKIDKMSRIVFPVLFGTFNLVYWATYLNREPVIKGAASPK

[4] = system: HEK293; assay: Selectivity ratio of Ki for cloned human GABA alpha-2-beta-3-gamma-2 receptor expressed in HEK293 cells to Ki for cloned human GABA alpha-5-beta-3-gamma-2 receptor expressed in HEK293 cells; format: cell-based
[5] = system: HEK293; assay: Selectivity ratio of Ki for cloned human GABA alpha-1-beta-3-gamma-2 receptor expressed in HEK293 cells to Ki for cloned human GABA alpha-5-beta-3-gamma-2 receptor expressed in HEK293 cells; format: cell-based
[6] = Solubility by lypophlisation solubility assay; format: physicochemical
[7] = Half life in rat; format: ADME, organism-based; conditions: in vivo
[8] = Permeability by PAMPA; format: ADME; conditions: read-out: permeability
[9] = Clearance in rat; format: ADME, organism-based; conditions: in vivo
[10] = Oral bioavailability in rat; format: ADME, organism-based; conditions: in vivo
[11] = biological target: GABA-A receptor; alpha-1/beta-2/gamma-2 (Rattus norvegicus) (UniProt P18508+P62813+P63138); assay: Inverse agonist activity at rat GABA alpha-1-beta-3-gamma-2 receptor expressed in HEK293 cells by electrophysiology assay relative to GABA; format: functional, cell-based
[12] = Volume of distribution at steady state in rat; format: ADME, organism-based; conditions: in vivo, read-out: Vdss
[13] = Lipophilicity, log D at pH 7.4; format: physicochemical; conditions: buffer
[14] = biological target: GABA-A receptor; alpha-5/beta-3/gamma-2 (Homo sapiens) (UniProt P18507+P28472+P31644); assay: Inverse agonist activity at human GABA alpha-5-beta-3-gamma-2 receptor expressed in Xenopus laevis oocyts by electrophysiology assay relative to GABA; format: functional
[15] = Selectivity ratio of Ki for cloned human GABA alpha-3-beta-3-gamma-2 receptor expressed in insect SF9 cells to Ki for cloned human GABA alpha-5-beta-3-gamma-2 receptor expressed in insect SF9 cells
[16] = Selectivity ratio of Ki for cloned human GABA alpha-1-beta-3-gamma-2 receptor expressed in insect SF9 cells to Ki for cloned human GABA alpha-5-beta-3-gamma-2 receptor expressed in insect SF9 cells
[17] = Selectivity ratio of Ki for cloned human GABA alpha-2-beta-3-gamma-2 receptor expressed in insect SF9 cells to Ki for cloned human GABA alpha-5-beta-3-gamma-2 receptor expressed in insect SF9 cells

Compound	Efficacy [1] [%]	Ratio Ki [2]	pKi [3]	Ratio Ki [4]	Ratio Ki [5]	Efficacy [14] [%]	other results
CCCc1ncn2c1Cn1ncnc1-c1cc(Cl)ccc1-2	-35	3	8.80	5	3	–	–
Cc1ncn2c1Cn1ncnc1-c1cc(Br)ccc1-2	-42	21	8.21	30	22	–	solubility [6]: 78 µg/mL (≈ 247 µM); half-life [7]: 7.7 h; Papp [8]: 7.6 ×10⁻⁶ cm/s; clearance [9]: 0.6 mL/min/kg; bioavailability [10]: 80%; Efficacy [11]: -9%; Vd [12]: 0.4 L/kg; logD [13]: 1.6
Cc1ccc2c(c1)-c1ncnn1Cc1c(Cl)ncn1-2	-37	12	8.74	23	11	–	–
CC(=O)Nc1ccc2c(c1)-c1ncnn1Cc1c(Cl)ncn1-2	-34	10	8.54	19	14	–	–
Cc1nc(-c2ncn3c2Cn2ncnc2-c2cc(F)ccc2-3)no1	-12	3	9.70	5	3	–	–
Cc1ncn2c1Cn1ncnc1-c1c(F)cccc1-2	–	6	9.00	13	5	-42	–
Clc1ncn2c1Cn1ncnc1-c1cc(-c3ccccc3)ccc1-2	8	8	8.20	5	4	–	–
FC(F)c1ccc2c(c1)-c1ncnn1Cc1c(Cl)ncn1-2	-42	15	8.96	36	19	–	–
C#CCNC(=O)c1ncn2c1Cn1ncnc1-c1cc(F)ccc1-2	-35	1	7.17	1	4	–	–
Cc1ncn2c1Cn1ncnc1-c1ccccc1-2	-44	4	8.59	6	16	–	–
N#Cc1ccc2c(c1)-c1ncnn1Cc1c(Cl)ncn1-2	-27	5	8.62	16	15	–	–
CCS(=O)(=O)c1ncn2c1Cn1ncnc1-c1cc(Cl)ccc1-2	-23	4	6.67	> 15	4	–	–
Cc1cccc(-c2ncn3c2Cn2ncnc2-c2cc(Cl)ccc2-3)n1	-12	8	7.51	11	11	–	–
Cc1ncn2c1Cn1ncnc1-c1cc(OC(F)(F)F)ccc1-2	-41	24	7.30	29	10	–	–
Cc1ncn2c1Cn1ncnc1-c1c(Cl)cccc1-2	–	1	8.92	2	0.6	-45	–
O=C(Nc1ccc2c(c1)-c1ncnn1Cc1c(Cl)ncn1-2)C1CC1	–	5	7.80	6	2	-48	–
CCC(F)(F)c1ncn2c1Cn1ncnc1-c1cc(F)ccc1-2	-27	2	8.49	3	5	–	–

Compound	Efficacy [1] [%]	Ratio Ki [2]	pKi [3]	Ratio Ki [4]	Ratio Ki [5]	Efficacy [14] [%]	other results
Cc1ccc2c(c1)-c1ncnn1Cc1c(C)ncn1-2	–	23	8.04	34	11	-37	–
Cc1ncn2c1Cn1ncnc1-c1cccc(F)c1-2	–	5	7.19	12	12	-50	–
Clc1ncn2c1Cn1ncnc1-c1ccccc1-2	-41	2	9.52	5	13	–	–
Cc1ncn2c1Cn1ncnc1-c1cc(C(F)(F)F)ccc1-2	–	29	7.74	78	29	-32	–
COc1ccc2c(c1)-c1ncnn1Cc1c(C)ncn1-2	–	18	8.11	31	11	-45	–
Clc1ncn2c1Cn1ncnc1-c1cc(C3CC3)ccc1-2	-47	16	8.92	15	23	–	–
Clc1ccc2c(c1)-c1ncnn1Cc1c(C3CC3)ncn1-2	-21	5	8.03	7	6	–	–
CS(=O)(=O)Nc1ccc2c(c1)-c1ncnn1Cc1c(Cl)ncn1-2	–	5	7.27	5	7	-36	–
Cc1ncn2c1Cn1ncnc1-c1cc(F)ccc1-2	-38	4	8.52	3	6	–	–
Clc1ncn2c1Cn1ncnc1-c1cc(NC3CC3)ccc1-2	-37	36	8.66	43	10	–	–
Cn1nccc1-c1ncn2c1Cn1ncnc1-c1cc(Br)ccc1-2	–	22	8.01	35	26	-33	–
Cc1ncn2c1Cn1ncnc1-c1cc(OC(F)F)ccc1-2	–	33	8.74	53	58	-43	–
c1ccc2c(c1)-c1ncnn1Cc1cncn1-2	-37	–	–	–	–	–	Ratio Ki [15]: 0.06; Ratio Ki [16]: 15; Ratio Ki [17]: 0.05
Cc1ncn2c1Cn1ncnc1-c1cc(C(F)F)ccc1-2	–	30	8.66	62	29	-45	–
Cc1ncn2c1Cn1ncnc1-c1cc(I)ccc1-2	–	29	8.36	60	42	-57	–
Brc1ccc2c(c1)-c1ncnn1Cc1c(-c3cccs3)ncn1-2	–	16	8.40	22	27	-10	–
Clc1ncn2c1Cn1ncnc1-c1cc(-n3ccnc3)ccc1-2	-7	1	7.89	2	1	–	–

— ChEMBL document CHEMBL1154288, “The discovery and unique pharmacological profile of RO4938581 and RO4882224 as potent and selective GABAA alpha5 inverse agonists for the treatment of cognitive dysfunction” (Bioorg Med Chem Lett, 2009)
